Conditions: Liquid

CC(C)(N)CO [2-amino-2-methylpropan-1-ol]
Conditions | vapor or sublimation pressure [kPa]
373.25 K | 8
381.35 K | 12
388.05 K | 16
393.05 K | 20
397.25 K | 24
401.05 K | 28
404.45 K | 32
407.75 K | 36
410.35 K | 40
412.95 K | 44
415.15 K | 48
416.65 K | 50.7
418.15 K | 53.3
419.95 K | 57.3
421.85 K | 61.3
423.65 K | 65.3
424.45 K | 66.7
425.55 K | 69.3
427.15 K | 73.3
429.65 K | 80
429.75 K | 80
431.85 K | 85.3
433.65 K | 90.7
435.35 K | 96
436.85 K | 101.3
